Measurements: ChEMBL document CHEMBL3627685, “Identification of a molecular target of kurahyne, an apoptosis-inducing lipopeptide from marine cyanobacterial assemblages” (Bioorg Med Chem Lett, 2015)
Active and inactive are the calls of the source. The calls are words filed in the database; no cut-off is given here. Starred links: 1 amine or outer side, 2 acyl side, 3 side chain; linkers in the order of their positions; H or OH if unused. Non-standard residues stand in square brackets, D forms with d. Residues, ends and D or L forms follow the SMILES beside them. *: point of attachment. X2 = O=C(O)c1cc(N*)ccc1-c1c2ccc(=O)cc-2oc2cc(O)ccc12; Pyrrolidine(2S-propanoyl) = CCC(=O)[C@@H]1CCCN1*; Biotin = O=C1N[C@H]2[C@H](CS[C@H]2CCCCC(=O)*)N1; X3 = C/C(=C\CCCc1cn(CCCN[*:1])nn1)C(=O)[*:2]; NMeI = CC[C@H](C)[C@H](NC)C(=O)O; PEG4 = NCCOCCOCCOCCOCCC(=O)O; NMeV = CN[C@H](C(=O)O)C(C)C; CO = O=C([*:1])[*:2]

Tests used:
HeLa [1] = experiment: Induction of endoplasmic reticulum stress in human HeLa cells assessed as upregulation of Bip mRNA expression at 1 uM after 6 hrs by RT-PCR analysis; assay type: functional, cell-based
HeLa S3 [2] = experiment: Induction of Ca2+ release from endoplasmic reticulum into cytosol in human HeLaS3 cells at 1 uM by fura-2/AM-based spectrofluorometric analysis; assay type: functional, cell-based
HeLa [3] = experiment: Induction of endoplasmic reticulum stress in human HeLa cells assessed as upregulation of CHOP mRNA expression at 1 uM after 6 hrs by RT-PCR analysis; assay type: functional, cell-based
[4] = target: Sarcoplasmic/endoplasmic reticulum calcium ATPase 1 (Oryctolagus cuniculus) (UniProt P04191); experiment: Inhibition of ATPase activity of SERCA1a in rabbit sarcoplasmic reticulum vesicles at 30 uM measured for 3 mins by lactate dehydrogenase/pyruvate kinase coupled assay
Chain of Sarcoplasmic/endoplasmic reticulum calcium ATPase 1 (Oryctolagus cuniculus) (P04191 whole entry): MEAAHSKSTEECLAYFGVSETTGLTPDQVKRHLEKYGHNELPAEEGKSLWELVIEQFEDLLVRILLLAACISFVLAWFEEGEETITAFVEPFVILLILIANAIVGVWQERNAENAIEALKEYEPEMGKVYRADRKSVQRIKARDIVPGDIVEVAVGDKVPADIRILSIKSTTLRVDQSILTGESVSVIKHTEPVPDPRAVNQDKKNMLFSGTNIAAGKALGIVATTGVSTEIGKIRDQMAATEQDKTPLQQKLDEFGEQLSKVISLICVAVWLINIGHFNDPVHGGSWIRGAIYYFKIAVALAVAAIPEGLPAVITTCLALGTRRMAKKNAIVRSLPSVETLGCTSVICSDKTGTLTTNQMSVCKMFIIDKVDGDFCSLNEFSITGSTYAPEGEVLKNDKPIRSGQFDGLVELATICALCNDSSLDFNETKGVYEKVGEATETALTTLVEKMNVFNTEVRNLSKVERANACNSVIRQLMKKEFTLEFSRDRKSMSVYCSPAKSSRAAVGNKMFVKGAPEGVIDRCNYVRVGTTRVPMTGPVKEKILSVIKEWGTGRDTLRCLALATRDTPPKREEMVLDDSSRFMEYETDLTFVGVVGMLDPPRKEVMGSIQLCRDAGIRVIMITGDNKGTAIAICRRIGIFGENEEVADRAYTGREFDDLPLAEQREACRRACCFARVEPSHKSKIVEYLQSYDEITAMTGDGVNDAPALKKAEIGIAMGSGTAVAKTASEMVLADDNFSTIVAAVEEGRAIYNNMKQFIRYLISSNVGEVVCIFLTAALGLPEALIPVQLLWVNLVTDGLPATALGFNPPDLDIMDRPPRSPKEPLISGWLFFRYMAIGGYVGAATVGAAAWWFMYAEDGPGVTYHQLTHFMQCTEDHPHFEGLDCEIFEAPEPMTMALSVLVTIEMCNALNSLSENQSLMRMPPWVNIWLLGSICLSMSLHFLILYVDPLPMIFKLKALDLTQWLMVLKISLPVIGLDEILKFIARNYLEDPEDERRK

HeLa [5] = experiment: Binding affinity to SERCA in human HeLa cells at […] after 12 hrs by immunoblot analysis; assay type: cell-based
HeLa [6] = experiment: Induction of endoplasmic reticulum stress in human HeLa cells assessed as upregulation of Bip mRNA expression at 100 uM after 6 hrs by RT-PCR analysis; assay type: functional, cell-based
[7] = Drug uptake in endoplasmic reticulum in human HeLa cells at 10 uM after 6 hrs by DsRed/DAPI dye-based fluorescence microscopic analysis; assay type: ADME, cell-based
HeLa S3 [8] = experiment: Induction of Ca2+ release from endoplasmic reticulum into cytosol in human HeLaS3 cells at 10 uM by fura-2/AM-based spectrofluorometric analysis; assay type: functional, cell-based
HeLa [9] = experiment: Cytotoxicity against human HeLa cells assessed as growth inhibition after 72 hrs by MTT assay; assay type: functional, cell-based
PC-3 = experiment: Cytotoxicity against human PC3 cells assessed as growth inhibition by sulforhodamine B assay; assay type: functional
HCT-15 = experiment: Cytotoxicity against human HCT15 cells assessed as growth inhibition by sulforhodamine B assay; assay type: functional
MCF7 = experiment: Cytotoxicity against human MCF7 cells assessed as growth inhibition by sulforhodamine B assay; assay type: functional
SF-539 = experiment: Cytotoxicity against human SF539 cells assessed as growth inhibition by sulforhodamine B assay; assay type: functional
[10] = Cytotoxicity against human BSY1 cells assessed as growth inhibition by sulforhodamine B assay; assay type: functional; details: BSY-1
KM12 = experiment: Cytotoxicity against human KM12 cells assessed as growth inhibition by sulforhodamine B assay; assay type: functional
HeLa S3 [11] = experiment: Induction of Ca2+ release from endoplasmic reticulum into cytosol in human HeLaS3 cells by fura-2/AM-based spectrofluorometric analysis; assay type: functional, cell-based
OVCAR-4 = experiment: Cytotoxicity against human OVCAR4 cells assessed as growth inhibition by sulforhodamine B assay; assay type: functional
[12] = Cytotoxicity against mouse BMDM assessed as growth inhibition after 72 hrs by MTT assay
St-4 = experiment: Cytotoxicity against human St-4 cells assessed as growth inhibition by sulforhodamine B assay; assay type: functional
OVCAR-3 = experiment: Cytotoxicity against human OVCAR3 cells assessed as growth inhibition by sulforhodamine B assay; assay type: functional
OVCAR-5 = experiment: Cytotoxicity against human OVCAR5 cells assessed as growth inhibition by sulforhodamine B assay; assay type: functional
A549 = experiment: Cytotoxicity against human A549 cells assessed as growth inhibition by sulforhodamine B assay; assay type: functional
[13] = Cytotoxicity against human MKN45 cells assessed as growth inhibition by sulforhodamine B assay; assay type: functional; details: MKN-45
NCI-H23 = experiment: Cytotoxicity against human NCI-H23 cells assessed as growth inhibition by sulforhodamine B assay; assay type: functional
MDA-MB-231 = experiment: Cytotoxicity against human MDA-MB-231 cells assessed as growth inhibition by sulforhodamine B assay; assay type: functional
HT-29 = experiment: Cytotoxicity against human HT-29 cells assessed as growth inhibition by sulforhodamine B assay; assay type: functional
U-251 = experiment: Cytotoxicity against human U251 cells assessed as growth inhibition by sulforhodamine B assay; assay type: functional
[14] = Cytotoxicity against human DMS273 cells assessed as growth inhibition by sulforhodamine B assay; assay type: functional; details: DMS-273
SF-295 = experiment: Cytotoxicity against human SF295 cells assessed as growth inhibition by sulforhodamine B assay; assay type: functional
HCT-116 = experiment: Cytotoxicity against human HCT116 cells assessed as growth inhibition by sulforhodamine B assay; assay type: functional
[15] = Cytotoxicity against human HBC4 cells assessed as growth inhibition by sulforhodamine B assay; assay type: functional
[16] = Cytotoxicity against human MKN28 cells assessed as growth inhibition by sulforhodamine B assay; assay type: functional; details: MKN-28
NCI-H460 = experiment: Cytotoxicity against human NCI-H460 cells assessed as growth inhibition by sulforhodamine B assay; assay type: functional
HeLa [17] = experiment: Induction of endoplasmic reticulum stress in human HeLa cells assessed as upregulation of Bip mRNA expression at 10 uM after 6 hrs by RT-PCR analysis; assay type: functional, cell-based
ACHN = experiment: Cytotoxicity against human ACHN cells assessed as growth inhibition by sulforhodamine B assay; assay type: functional
[18] = Cytotoxicity against human DMS114 cells assessed as growth inhibition by sulforhodamine B assay; assay type: functional; details: DMS-114
[19] = Cytotoxicity against human MKN74 cells assessed as growth inhibition by sulforhodamine B assay; assay type: functional; details: MKN-74
[20] = Cytotoxicity against human MKN1 cells assessed as growth inhibition by sulforhodamine B assay; assay type: functional; details: MKN-1
[21] = target: Sarcoplasmic/endoplasmic reticulum calcium ATPase 1 (Oryctolagus cuniculus) (UniProt P04191); experiment: Inhibition of ATPase activity of SERCA1a in rabbit sarcoplasmic reticulum vesicles measured for 3 mins by lactate dehydrogenase/pyruvate kinase coupled assay
NCI-H522 = experiment: Cytotoxicity against human NCI-H522 cells assessed as growth inhibition by sulforhodamine B assay; assay type: functional
NCI-H226 = experiment: Cytotoxicity against human NCI-H226 cells assessed as growth inhibition by sulforhodamine B assay; assay type: functional
DU-145 = experiment: Cytotoxicity against human DU145 cells assessed as growth inhibition by sulforhodamine B assay; assay type: functional
SK-OV-3 = experiment: Cytotoxicity against human SKOV3 cells assessed as growth inhibition by sulforhodamine B assay; assay type: functional
OVCAR-8 = experiment: Cytotoxicity against human OVCAR8 cells assessed as growth inhibition by sulforhodamine B assay; assay type: functional
[22] = Cytotoxicity against human SNB78 cells assessed as growth inhibition by sulforhodamine B assay; assay type: functional; details: SNB-78
[23] = Cytotoxicity against human MKN7 cells assessed as growth inhibition by sulforhodamine B assay; assay type: functional; details: MKN-7
LOX IMVI = experiment: Cytotoxicity against human LOXIMVI cells assessed as growth inhibition by sulforhodamine B assay; assay type: functional
HCC 2998 = experiment: Cytotoxicity against human HCC2998 cells assessed as growth inhibition by sulforhodamine B assay; assay type: functional
[24] = Cytotoxicity against human HBC5 cells assessed as growth inhibition by sulforhodamine B assay; assay type: functional
HeLa [25] = experiment: Induction of endoplasmic reticulum stress in human HeLa cells assessed as upregulation of CHOP mRNA expression at 10 uM after 6 hrs by RT-PCR analysis; assay type: functional, cell-based
[26] = Cytotoxicity against human RXF631L cells assessed as growth inhibition by sulforhodamine B assay; assay type: functional; details: RXF 631
SNB-75 = experiment: Cytotoxicity against human SNB75 cells assessed as growth inhibition by sulforhodamine B assay; assay type: functional
HL-60 = experiment: Cytotoxicity against human HL60 cells assessed as growth inhibition after 72 hrs by MTT assay; assay type: functional, cell-based; details: HL-60, 72 h
SF-268 = experiment: Cytotoxicity against human SF268 cells assessed as growth inhibition by sulforhodamine B assay; assay type: functional

Question: With C/C=C(/C)C(=O)O[C@H]1C(C)=C2[C@H]([C@@H]1OC(=O)CCCCCCC)[C@@](C)(OC(C)=O)C[C@H](OC(=O)CCC)[C@@]1(O)[C@H]2OC(=O)[C@@]1(C)O as the molecule, how does the Activity (HeLa [1]) read?
Answer: Active

Question: And the Activity (HeLa S3 [2])?
Answer: Active

Question: And the Activity (HeLa [3])?
Answer: Active

Question: What about the inhibition [4] of the same molecule?
Answer: Active

Question: Which Activity (HeLa [5]) does the source give for CCC(=O)[C@@H]1CCCN1C(=O)[C@@H]1CCCN1C(=O)[C@H](C(C)C)N(C)C(=O)[C@H](C(C)C)N(C)C(=O)[C@H]([C@@H](C)CC)N(C)C(=O)[C@H]([C@@H](C)CC)N(C)C(=O)/C(C)=C/CCCc1cn(CCCNC(=O)CCOCCOCCOCCOCCNC(=O)CCCC[C@@H]2SC[C@@H]3NC(=O)N[C@@H]32)nn1 ({Biotin-PEG4}-[X3][NMeI][NMeI][NMeV][NMeV]P-{Pyrrolidine(2S-propanoyl)}) here?
Answer: Active

Question: With CCC(=O)[C@@H]1CCCN1C(=O)[C@@H]1CCCN1C(=O)[C@H](C(C)C)N(C)C(=O)[C@H](C(C)C)N(C)C(=O)[C@H]([C@@H](C)CC)N(C)C(=O)[C@H]([C@@H](C)CC)N(C)C(=O)/C(C)=C/CCCc1cn(CCCNC(=O)Nc2ccc(-c3c4ccc(=O)cc-4oc4cc(O)ccc34)c(C(=O)O)c2)nn1 ({X2-CO}-[X3][NMeI][NMeI][NMeV][NMeV]P-{Pyrrolidine(2S-propanoyl)}) as the molecule, how does the Activity (HeLa [6]) read?
Answer: Active

Question: And the Drug uptake [7]?
Answer: Active

Question: Which Activity (HeLa S3 [8]) does the source give for CC(=O)C1=C(O)[C@@H]2[C@H]3c4c[nH]c5cccc(c45)C[C@H]3C(C)(C)N2C1=O here?
Answer: Active

Question: Which Activity (HeLa [6]) does the source give for C#CCCC/C=C(\C)C(=O)N(C)[C@H](C(=O)N(C)[C@H](C(=O)N(C)[C@H](C(=O)N(C)[C@H](C(=O)N1CCC[C@H]1C(=O)N1CCC[C@H]1/C(CC)=N/OCC(=O)NCCCCCNC(=S)Nc1ccc(-c2c3ccc(=O)cc-3oc3cc(O)ccc23)c(C(=O)O)c1)C(C)C)C(C)C)[C@@H](C)CC)[C@@H](C)CC here?
Answer: inactive

Question: Which results are given for C#CCCC/C=C(\C)C(=O)N(C)[C@H](C(=O)N(C)[C@H](C(=O)N(C)[C@H](C(=O)N(C)[C@H](C(=O)N1CCC[C@H]1C(=O)N1CCC[C@H]1C(=O)CC)C(C)C)C(C)C)[C@@H](C)CC)[C@@H](C)CC (HELM PEPTIDE1{[C#CCCC/C=C(\C)C(=O)[*:2]].[meI].[meI].[meV].[meV].P.[CCC(=O)[C@@H]1CCCN1[*:1]]}$$$$V2.0)?
Answer: IC50 (HeLa [9]): 3.9 µM; GI50 (PC-3): 4.47 µM; GI50 (HCT-15): 11.5 µM; GI50 (MCF7): 3.98 µM; GI50 (SF-539): 10 µM; GI50 [10]: 3.09 µM; GI50 (KM12): 12.9 µM; Activity (HeLa S3 [11]): Dose-dependent effect; GI50 (OVCAR-4): 11 µM; IC50 [12]: 1.96 µM; GI50 (St-4): 13.2 µM; GI50 (OVCAR-3): 6.61 µM; GI50 (OVCAR-5): 11.2 µM; GI50 (A549): 7.24 µM; GI50 [13]: 7.94 µM; GI50 (NCI-H23): 13.8 µM; GI50 (MDA-MB-231): 4.17 µM; GI50 (HT-29): 4.47 µM; GI50 (U-251): 8.32 µM; GI50 [14]: 5.5 µM; GI50 (SF-295): 10.7 µM; GI50 (HCT-116): 5.13 µM; GI50 [15]: 12.3 µM; GI50 [16]: 12.9 µM; GI50 (NCI-H460): 9.55 µM; Activity (HeLa [17]): Active; GI50 (ACHN): 13.5 µM; GI50 [18]: 4.9 µM; GI50 [19]: 3.72 µM; GI50 [20]: 15.1 µM; inhibition [21]: Dose-dependent effect; GI50 (NCI-H522): 2.4 µM; GI50 (NCI-H226): 7.24 µM; GI50 (DU-145): 13.8 µM; GI50 (SK-OV-3): 11.2 µM; GI50 (OVCAR-8): 14.5 µM; GI50 [22]: 16.6 µM; GI50 [23]: 7.41 µM; GI50 (LOX IMVI): 3.89 µM; GI50 (HCC 2998): 14.8 µM; GI50 [24]: 10.5 µM; Activity (HeLa [25]): Active; GI50 [26]: 5.89 µM; GI50 (SNB-75): 14.5 µM; IC50 (HL-60): 1.5 µM; GI50 (SF-268): 5.62 µM
